System: 463943-066-T-J2-PDC complex spheroid growth
Assay: Anticancer human tumor 463943-066-T-J2-PDC patient-derived colon adenocarcinoma cell line growth inhibition [Asc]
Conditions: for viability, T/C: stronger effect = lower value
In short: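 Spheroid model: tumor line + HUVEC + hMSC. Single agents and combinations; top conc. at/near clinical Cmax (10 microM if undetermined), half-log dilutions. DMSO stocks at 800-fold test concentration.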

[1] = curve of first compound, second compound 0.0316 µM
[2] = curve of first compound, second compound 0.1 µM
[3] = curve of first compound, second compound 0.316 µM
[4] = curve of first compound, second compound 1 µM
[5] = curve of first compound, second compound 3.16 µM
[6] = curve of first compound, second compound 10 µM
[7] = second compound 0.0316 µM, first compound 0.0316 µM
[8] = second compound 0.0316 µM, first compound 0.1 µM
[9] = second compound 0.0316 µM, first compound 0.316 µM
[10] = second compound 0.0316 µM, first compound 1 µM
[11] = second compound 0.0316 µM, first compound 3.16 µM
[12] = second compound 0.0316 µM, first compound 10 µM
[13] = second compound 0.1 µM, first compound 0.0316 µM
[14] = second compound 0.1 µM, first compound 0.1 µM
[15] = second compound 0.1 µM, first compound 0.316 µM
[16] = second compound 0.1 µM, first compound 1 µM
[17] = second compound 0.1 µM, first compound 3.16 µM
[18] = second compound 0.1 µM, first compound 10 µM
[19] = second compound 0.316 µM, first compound 0.0316 µM
[20] = second compound 0.316 µM, first compound 0.1 µM
[21] = second compound 0.316 µM, first compound 0.316 µM
[22] = second compound 0.316 µM, first compound 1 µM
[23] = second compound 0.316 µM, first compound 3.16 µM
[24] = second compound 0.316 µM, first compound 10 µM
[25] = second compound 1 µM, first compound 0.0316 µM
[26] = second compound 1 µM, first compound 0.1 µM
[27] = second compound 1 µM, first compound 0.316 µM
[28] = second compound 1 µM, first compound 1 µM
[29] = second compound 1 µM, first compound 3.16 µM
[30] = second compound 1 µM, first compound 10 µM
[31] = second compound 3.16 µM, first compound 0.0316 µM
[32] = second compound 3.16 µM, first compound 0.1 µM
[33] = second compound 3.16 µM, first compound 0.316 µM
[34] = second compound 3.16 µM, first compound 1 µM
[35] = second compound 3.16 µM, first compound 3.16 µM
[36] = second compound 3.16 µM, first compound 10 µM
[37] = second compound 10 µM, first compound 0.0316 µM
[38] = second compound 10 µM, first compound 0.1 µM
[39] = second compound 10 µM, first compound 0.316 µM
[40] = second compound 10 µM, first compound 1 µM
[41] = second compound 10 µM, first compound 3.16 µM
[42] = second compound 10 µM, first compound 10 µM
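Further: compound exposure lasted 7 days.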
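Wherever viability, T/C is given: 100% = DMSO vehicle control wells.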

`Cc1nc(N2CCC3(CC2)COC(C)C3N)c(CO)nc1Sc1ccnc(N)c1Cl` (centres undefined) + Cc1c(S(C)(=O)=O)c(-c2cc(F)cc(N3CCN(c4ccc(NS(=O)(=O)c5ccc(NC(CCN6CCC(C(=O)OCCCP(=O)(O)O)CC6)CSc6ccccc6)c(S(=O)(=O)C(F)(F)F)c5)cc4)CC3)c2)c(-c2ccc(Cl)cc2)n1C(C)C was tested, and the IC50 [1] was > 3 µM, the IC50 [2] was > 3 µM and the IC50 [3] was > 3 µM. For the same compound, the IC50 [4] was > 3 µM, the IC50 [5] was 0.185 µM and the IC50 [6] was < 0.00949 µM. It also gave a viability, T/C (second compound 0.0316 µM, first compound 0.00949 µM) of 106%, a viability, T/C (second compound 0.0316 µM, first compound 0.03 µM) of 86.8% and a viability, T/C (second compound 0.0316 µM, first compound 0.0949 µM) of 87.3%. It also gave a viability, T/C (second compound 0.0316 µM, first compound 0.3 µM) of 87.3%, a viability, T/C (second compound 0.0316 µM, first compound 0.949 µM) of 77.8% and a viability, T/C (second compound 0.0316 µM, first compound 3 µM) of 63.9%. It also gave a viability, T/C (second compound 0.1 µM, first compound 0.00949 µM) of 93.1%, a viability, T/C (second compound 0.1 µM, first compound 0.03 µM) of 87.2% and a viability, T/C (second compound 0.1 µM, first compound 0.0949 µM) of 90.7%. For the same compound, the viability, T/C (second compound 0.1 µM, first compound 0.3 µM) was 82.4%, the viability, T/C (second compound 0.1 µM, first compound 0.949 µM) was 75.1% and the viability, T/C (second compound 0.1 µM, first compound 3 µM) was 58.1%. For the same compound, the viability, T/C (second compound 0.316 µM, first compound 0.00949 µM) was 84%, the viability, T/C (second compound 0.316 µM, first compound 0.03 µM) was 85.1% and the viability, T/C (second compound 0.316 µM, first compound 0.0949 µM) was 78.5%. The viability, T/C (second compound 0.316 µM, first compound 0.3 µM) was 71.1%, the viability, T/C (second compound 0.316 µM, first compound 0.949 µM) was 65.8% and the viability, T/C (second compound 0.316 µM, first compound 3 µM) was 52.4%. The viability, T/C (second compound 1 µM, first compound 0.00949 µM) was 77.2%, the viability, T/C (second compound 1 µM, first compound 0.03 µM) was 73.7% and the viability, T/C (second compound 1 µM, first compound 0.0949 µM) was 66%. It also gave a viability, T/C (second compound 1 µM, first compound 0.3 µM) of 67.6%, a viability, T/C (second compound 1 µM, first compound 0.949 µM) of 64.9% and a viability, T/C (second compound 1 µM, first compound 3 µM) of 50.7%. The viability, T/C (second compound 3.16 µM, first compound 0.00949 µM) was 57%, the viability, T/C (second compound 3.16 µM, first compound 0.03 µM) was 58.5% and the viability, T/C (second compound 3.16 µM, first compound 0.0949 µM) was 51%. For the same compound, the viability, T/C (second compound 3.16 µM, first compound 0.3 µM) was 49.2%, the viability, T/C (second compound 3.16 µM, first compound 0.949 µM) was 41.4% and the viability, T/C (second compound 3.16 µM, first compound 3 µM) was 36.5%. It also gave a viability, T/C (second compound 10 µM, first compound 0.00949 µM) of 48.7%, a viability, T/C (second compound 10 µM, first compound 0.03 µM) of 44.8% and a viability, T/C (second compound 10 µM, first compound 0.0949 µM) of 41.4%. For the same compound, the viability, T/C (second compound 10 µM, first compound 0.3 µM) was 39.4%, the viability, T/C (second compound 10 µM, first compound 0.949 µM) was 35.9% and the viability, T/C (second compound 10 µM, first compound 3 µM) was 27.6%.

In the case of `C=CC(=O)N1CCN(c2nc(=O)n(-c3c(C)ccnc3C(C)C)c3nc(-c4c(O)cccc4F)c(F)cc23)C(C)C1` (centres undefined) + Cc1c(S(C)(=O)=O)c(-c2cc(F)cc(N3CCN(c4ccc(NS(=O)(=O)c5ccc(NC(CCN6CCC(C(=O)OCCCP(=O)(O)O)CC6)CSc6ccccc6)c(S(=O)(=O)C(F)(F)F)c5)cc4)CC3)c2)c(-c2ccc(Cl)cc2)n1C(C)C, the IC50 [1] is reported as > 10 µM, the IC50 [2] is reported as > 10 µM and the IC50 [3] is reported as > 10 µM. For the same compound, the IC50 [4] was > 10 µM, the IC50 [5] was > 10 µM and the IC50 [6] was 7.14 µM. The viability, T/C [7] was 84.9%, the viability, T/C [8] was 92.3% and the viability, T/C [9] was 91%. The viability, T/C [10] was 96.1%, the viability, T/C [11] was 100% and the viability, T/C [12] was 78.3%. The viability, T/C [13] was 95%, the viability, T/C [14] was 89.7% and the viability, T/C [15] was 91.4%. For the same compound, the viability, T/C [16] was 93.6%, the viability, T/C [17] was 91.9% and the viability, T/C [18] was 84.4%. The viability, T/C [19] was 83.8%, the viability, T/C [20] was 90% and the viability, T/C [21] was 85.3%. For the same compound, the viability, T/C [22] was 87.3%, the viability, T/C [23] was 86.8% and the viability, T/C [24] was 83%. The viability, T/C [25] was 74%, the viability, T/C [26] was 75.6% and the viability, T/C [27] was 75.3%. For the same compound, the viability, T/C [28] was 77%, the viability, T/C [29] was 72% and the viability, T/C [30] was 64.4%. The viability, T/C [31] was 57.8%, the viability, T/C [32] was 59.4% and the viability, T/C [33] was 60.1%. It also gave a viability, T/C [34] of 65%, a viability, T/C [35] of 66% and a viability, T/C [36] of 54.2%. For the same compound, the viability, T/C [37] was 51.5%, the viability, T/C [38] was 48.2% and the viability, T/C [39] was 52.9%. For the same compound, the viability, T/C [40] was 50.6%, the viability, T/C [41] was 52.1% and the viability, T/C [42] was 47.9%.

`O=C(c1cc(Cc2n[nH]c(=O)c3ccccc23)ccc1F)N1CCN(C(=O)C2CC2)CC1` + Cc1c(S(C)(=O)=O)c(-c2cc(F)cc(N3CCN(c4ccc(NS(=O)(=O)c5ccc(NC(CCN6CCC(C(=O)OCCCP(=O)(O)O)CC6)CSc6ccccc6)c(S(=O)(=O)C(F)(F)F)c5)cc4)CC3)c2)c(-c2ccc(Cl)cc2)n1C(C)C was tested, and the IC50 [1] was > 10 µM, the IC50 [2] was > 10 µM and the IC50 [3] was > 10 µM. For the same compound, the IC50 [4] was > 10 µM, the IC50 [5] was > 10 µM and the IC50 [6] was 1.16 µM. The viability, T/C [7] was 95.1%, the viability, T/C [8] was 90% and the viability, T/C [9] was 93%. The viability, T/C [10] was 97.3%, the viability, T/C [11] was 93.3% and the viability, T/C [12] was 86.9%. The viability, T/C [13] was 98.3%, the viability, T/C [14] was 86.5% and the viability, T/C [15] was 94.1%. For the same compound, the viability, T/C [16] was 91.5%, the viability, T/C [17] was 94.6% and the viability, T/C [18] was 81.7%. It also gave a viability, T/C [19] of 91.5%, a viability, T/C [20] of 90.3% and a viability, T/C [21] of 87.2%. The viability, T/C [22] was 85.8%, the viability, T/C [23] was 88.7% and the viability, T/C [24] was 77.1%. It also gave a viability, T/C [25] of 79.4%, a viability, T/C [26] of 76.2% and a viability, T/C [27] of 81.4%. The viability, T/C [28] was 79.3%, the viability, T/C [29] was 73.3% and the viability, T/C [30] was 74.8%. The viability, T/C [31] was 65.4%, the viability, T/C [32] was 59.8% and the viability, T/C [33] was 60.6%. For the same compound, the viability, T/C [34] was 67.2%, the viability, T/C [35] was 62.8% and the viability, T/C [36] was 54.9%. It also gave a viability, T/C [37] of 54.8%, a viability, T/C [38] of 48.4% and a viability, T/C [39] of 50.3%. It also gave a viability, T/C [40] of 51.8%, a viability, T/C [41] of 49.4% and a viability, T/C [42] of 48.2%.

With `CNC(C)C(=O)NC1CN(S(=O)(=O)c2cccc(S(=O)(=O)N3CCC4CCC(C(=O)NC(c5ccccc5)c5ccccc5)N4C(=O)C(NC(=O)C(C)NC)C3)c2)CCC2CCC(C(=O)NC(c3ccccc3)c3ccccc3)N2C1=O` (centres undefined) the viability, T/C (compound 0.00316 µM) was 99.1% [middle of 6 runs], the viability, T/C (compound 0.01 µM) was 94.9% [middle of 6 runs] and the viability, T/C (compound 0.0316 µM) was 100% [middle of 6 runs]. For the same compound, the viability, T/C (compound 0.1 µM) was 99.2% [middle of 6 runs], the viability, T/C (compound 0.316 µM) was 96.8% [middle of 6 runs] and the viability, T/C (compound 1 µM) was 92.2% [middle of 6 runs]. For the same compound, the IC50 (compound alone, run of 11/15/2022) was > 1 µM and the IC50 (curve of compound) was > 1 µM.

From PubChem BioAssay AID1963422 (Molecular Pharmacology Branch, DTP, NCI, 2024)
